Measurements published in the NIST ThermoML archive (doi:10.1021/acs.jced.8b00132).
“And” between values parts separate entries of the source, which are not always exact repeats. Equal values may be shown once.

Conditions: transient hot wire

O=C(C(F)(F)C(F)(F)F)C(F)(C(F)(F)F)C(F)(F)F [dodecafluoro-2-methylpentan-3-one]
Conditions	thermal conductivity
302.17 K, 68802 kPa, Liquid	0.07801 W/m/K
302.17 K, 68805 kPa, Liquid	0.07819 W/m/K
302.18 K, 185 kPa, Liquid	0.05684 W/m/K
302.19 K, 184 kPa, Liquid	0.05683 W/m/K
302.19 K, 38646 kPa, Liquid	0.07042 W/m/K
302.19 K, 38653 kPa, Liquid	0.07047 W/m/K
302.2 K, 4505 kPa, Liquid	0.05895 W/m/K
302.2 K, 4509 kPa, Liquid	0.05896 W/m/K
302.2 K, 22376 kPa, Liquid	0.06575 W/m/K
302.2 K, 22378 kPa, Liquid	0.06574 W/m/K
302.21 K, 181 kPa, Liquid	0.05683 W/m/K and 0.05685 W/m/K
302.21 K, 9730 kPa, Liquid	0.06078 W/m/K
302.21 K, 9731 kPa, Liquid	0.06057 W/m/K
302.22 K, 29975 kPa, Liquid	0.06769 W/m/K and 0.06766 W/m/K
302.23 K, 38 kPa, Gas	0.01171 W/m/K
302.24 K, 34 kPa, Gas	0.01182 W/m/K
302.24 K, 36 kPa, Gas	0.01189 W/m/K
302.25 K, 34 kPa, Gas	0.01189 W/m/K
302.26 K, 4429 kPa, Liquid	0.05855 W/m/K
302.26 K, 4432 kPa, Liquid	0.05857 W/m/K
302.26 K, 15648 kPa, Liquid	0.06339 W/m/K
302.26 K, 22430 kPa, Liquid	0.06528 W/m/K
302.27 K, 15647 kPa, Liquid	0.06339 W/m/K
302.27 K, 22437 kPa, Liquid	0.06518 W/m/K
302.29 K, 121 kPa, Liquid	0.05692 W/m/K
302.3 K, 121 kPa, Liquid	0.057 W/m/K
302.31 K, 92 kPa, Liquid	0.05649 W/m/K
302.31 K, 97 kPa, Liquid	0.05641 W/m/K
302.35 K, 9934 kPa, Liquid	0.0612 W/m/K
302.35 K, 9940 kPa, Liquid	0.06118 W/m/K
302.46 K, 4504 kPa, Liquid	0.05889 W/m/K
302.47 K, 4505 kPa, Liquid	0.05889 W/m/K
302.48 K, 184 kPa, Liquid	0.05681 W/m/K
302.49 K, 184 kPa, Liquid	0.05679 W/m/K
302.5 K, 181 kPa, Liquid	0.05679 W/m/K and 0.05678 W/m/K
302.52 K, 15868 kPa, Liquid	0.06291 W/m/K
302.53 K, 15872 kPa, Liquid	0.06281 W/m/K
302.54 K, 68548 kPa, Liquid	0.07804 W/m/K
302.54 K, 68549 kPa, Liquid	0.07799 W/m/K
302.57 K, 121 kPa, Liquid	0.05687 W/m/K and 0.05695 W/m/K
302.58 K, 58446 kPa, Liquid	0.0756 W/m/K
302.59 K, 58445 kPa, Liquid	0.07563 W/m/K
302.6 K, 34 kPa, Gas	0.01198 W/m/K
302.61 K, 36 kPa, Gas	0.01183 W/m/K
302.61 K, 38 kPa, Gas	0.01193 W/m/K
302.61 K, 68790 kPa, Liquid	0.07804 W/m/K
302.61 K, 68801 kPa, Liquid	0.07795 W/m/K
302.63 K, 48154 kPa, Liquid	0.07294 W/m/K
302.63 K, 48162 kPa, Liquid	0.07285 W/m/K
302.65 K, 15984 kPa, Liquid	0.06295 W/m/K
302.65 K, 15986 kPa, Liquid	0.06304 W/m/K
302.68 K, 38648 kPa, Liquid	0.07035 W/m/K
302.69 K, 38638 kPa, Liquid	0.07035 W/m/K
302.72 K, 9724 kPa, Liquid	0.06082 W/m/K
302.72 K, 9726 kPa, Liquid	0.06095 W/m/K
302.73 K, 29973 kPa, Liquid	0.06771 W/m/K
302.74 K, 29982 kPa, Liquid	0.06772 W/m/K
302.78 K, 4430 kPa, Liquid	0.0586 W/m/K
302.79 K, 4428 kPa, Liquid	0.05856 W/m/K
302.79 K, 22448 kPa, Liquid	0.06525 W/m/K
302.8 K, 22443 kPa, Liquid	0.06527 W/m/K
302.85 K, 95 kPa, Liquid	0.05658 W/m/K
302.86 K, 96 kPa, Liquid	0.05645 W/m/K
303.01 K, 36 kPa, Gas	0.01199 W/m/K
303.02 K, 38 kPa, Gas	0.01194 W/m/K
303.03 K, 35 kPa, Gas	0.01196 W/m/K
303.04 K, 68537 kPa, Liquid	0.07796 W/m/K
303.04 K, 68564 kPa, Liquid	0.07806 W/m/K
303.07 K, 15868 kPa, Liquid	0.06292 W/m/K
303.07 K, 15869 kPa, Liquid	0.06282 W/m/K
303.1 K, 58422 kPa, Liquid	0.07541 W/m/K
303.1 K, 58439 kPa, Liquid	0.07546 W/m/K
303.11 K, 68765 kPa, Liquid	0.07805 W/m/K
303.11 K, 68772 kPa, Liquid	0.07794 W/m/K
303.16 K, 48157 kPa, Liquid	0.07292 W/m/K
303.17 K, 48152 kPa, Liquid	0.07285 W/m/K
303.2 K, 15974 kPa, Liquid	0.06276 W/m/K
303.2 K, 15979 kPa, Liquid	0.06281 W/m/K
303.22 K, 38643 kPa, Liquid	0.07047 W/m/K
303.23 K, 38644 kPa, Liquid	0.0705 W/m/K
303.29 K, 9716 kPa, Liquid	0.06072 W/m/K
303.29 K, 9741 kPa, Liquid	0.06069 W/m/K
303.3 K, 29978 kPa, Liquid	0.06778 W/m/K
303.3 K, 29993 kPa, Liquid	0.06773 W/m/K
